Experimental findings from patent publication US11919901B2 (Syndax Pharmaceuticals, Inc., priority 2021, dated 2024) are described below.

The assay has as its system MV4-11 cells. The assay can be described thus: Cell proliferation assay MV4;11 (CellTiter-Glo, 72 hours). Type of assay: cell-based. To be noted: Homo sapiens; MV4;11 leukemia cell line, 72 hours; read-out: MV4; 11 IC50. In short, it runs like this:
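MV4-11 cells (MLL1-AF4 fusion) exposed 72 h at 37 °C to 8 compound concentrations, final 0.632–2000 nM. Viability by CellTiter-Glo luminescence as % of vehicle RLU; % max inhibition = 100 − viability at top concentration.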

As to `CC(C)N(C(=O)c1cc(F)ccc1Oc1cncnc1N1CC2(CCN(C[C@@H]3CC[C@@H](NS(=O)(=O)N4CCC4)CO3)CC2)C1)[C@H]1CCOC1` [Example 134, 2-((4-(7-(((2S,5R)-5-(Azetidine-1-sulfonamido)tetrahydro-2H-pyran-2-yl)methyl)-2,7-diazaspiro[3.5]nonan-2-yl)pyrimidin-5-yl)oxy)-5-fluoro-N-isopropyl-N-((S)-tetrahydrofuran-3-yl)benzamide], the IC50 is < 100 nM.
The result for `CC(C)N(CCC#N)C(=O)c1cc(F)ccc1Oc1cncnc1N1CC2(CCN(C[C@@H]3CC[C@@H](NS(=O)(=O)c4ccccc4)CO3)CC2)C1` [Example 136, N-(2-Cyanoethyl)-5-fluoro-N-isopropyl-2-((4-(7-(((2S,5R)-5-(phenylsulfonamido)tetrahydro-2H-pyran-2-yl)methyl)-2,7-diazaspiro[3.5]nonan-2-yl)pyrimidin-5-yl)oxy)benzamide] reads < 100 nM; that for `CC(C)N(C)C(=O)c1cc(F)ccc1Oc1cncnc1N1CC2(CCN(C[C@@H]3CC[C@@H](NS(=O)(=O)N(C)C)CO3)CC2)C1` [Example 137, 2-((4-(7-(((2S,5R)-5-((N,N-Dimethylsulfamoyl)amino)tetrahydro-2H-pyran-2-yl)methyl)-2,7-diazaspiro[3.5]nonan-2-yl)pyrimidin-5-yl)oxy)-5-fluoro-N-isopropyl-N-methylbenzamide], < 100 nM.
The result for `CC(C)N(C)C(=O)c1cc(F)ccc1Oc1cncnc1N1CC2(CCN(C[C@@H]3CC[C@@H](NS(=O)(=O)N4CCC4)CO3)CC2)C1` [Example 138, 2-((4-(7-(((2S,5R)-5-(Azetidine-1-sulfonamido)tetrahydro-2H-pyran-2-yl)methyl)-2,7-diazaspiro[3.5]nonan-2-yl)pyrimidin-5-yl)oxy)-5-fluoro-N-isopropyl-N-methylbenzamide] reads < 100 nM; that for `CCN(C(=O)c1cc(F)ccc1Oc1cncnc1N1CC2(CCN(C[C@@H]3CC[C@@H](NS(=O)(=O)N(C)CC)CO3)CC2)C1)C(C)C` [Example 140, N-Ethyl-2-((4-(7-(((2S,5R)-5-((N-ethyl-N-methylsulfamoyl)amino)tetrahydro-2H-pyran-2-yl)methyl)-2,7-diazaspiro[3.5]nonan-2-yl)pyrimidin-5-yl)oxy)-5-fluoro-N-isopropylbenzamide], < 100 nM.
As to `CCNS(=O)(=O)N[C@@H]1CC[C@@H](CN2CCC3(CC2)CN(c2ncncc2Oc2ccc(F)cc2C(=O)N(CC)C(C)C)C3)OC1` [Example 141, N-Ethyl-2-((4-(7-(((2S,5R)-5-((N-ethylsulfamoyl)amino)tetrahydro-2H-pyran-2-yl)methyl)-2,7-diazaspiro[3.5]nonan-2-yl)pyrimidin-5-yl)oxy)-5-fluoro-N-isopropylbenzamide], the IC50 was < 100 nM.
The result for `CCN(C(=O)c1cc(F)ccc1Oc1cncnc1N1CC2(CCN(C[C@@H]3CC[C@@H](NS(=O)(=O)NC4CC4)CO3)CC2)C1)C(C)C` [Example 142, 2-((4-(7-(((2S,5R)-5-((N-Cyclopropylsulfamoyl)amino)tetrahydro-2H-pyran-2-yl)methyl)-2,7-diazaspiro[3.5]nonan-2-yl)pyrimidin-5-yl)oxy)-N-ethyl-5-fluoro-N-isopropylbenzamide] reads < 100 nM.
Regarding `CNS(=O)(=O)N[C@@H]1CC[C@@H](CN2CCC3(CC2)CN(c2ncncc2Oc2ccc(F)cc2C(=O)N(C(C)C)C(C)C)C3)OC1` [Example 143, 5-Fluoro-N,N-diisopropyl-2-((4-(7-(((2S,5R)-5-((N-methylsulfamoyl)amino)tetrahydro-2H-pyran-2-yl)methyl)-2,7-diazaspiro[3.5]nonan-2-yl)pyrimidin-5-yl)oxy)benzamide], the IC50 was < 100 nM.
The result for `CCNS(=O)(=O)N[C@@H]1CC[C@@H](CN2CCC3(CC2)CN(c2ncncc2Oc2ccc(F)cc2C(=O)N(C(C)C)C(C)C)C3)OC1` [Example 144, 2-((4-(7-(((2S,5R)-5-((N-Ethylsulfamoyl)amino)tetrahydro-2H-pyran-2-yl)methyl)-2,7-diazaspiro[3.5]nonan-2-yl)pyrimidin-5-yl)oxy)-5-fluoro-N,N-diisopropylbenzamide] reads < 100 nM; that for `CCNS(=O)(=O)N[C@@H]1CC[C@@H](CN2CCC3(CC2)CN(c2ncncc2Oc2ccc(F)cc2C(=O)N(C(C)C)C2CC2)C3)OC1` [Example 145, N-Cyclopropyl-2-((4-(7-(((2S,5R)-5-((N-ethylsulfamoyl)amino)tetrahydro-2H-pyran-2-yl)methyl)-2,7-diazaspiro[3.5]nonan-2-yl)pyrimidin-5-yl)oxy)-5-fluoro-N-isopropylbenzamide], < 100 nM; that for `CCNS(=O)(=O)N[C@@H]1CC[C@@H](CN2CCC3(CC2)CN(c2ncncc2Oc2ccc(F)cc2C(=O)N(CC(F)F)C(C)C)C3)OC1` [Example 147, N-(2,2-Difluoroethyl)-2-((4-(7-(((2S,5R)-5-((N-ethylsulfamoyl)amino)tetrahydro-2H-pyran-2-yl)methyl)-2,7-diazaspiro[3.5]nonan-2-yl)pyrimidin-5-yl)oxy)-5-fluoro-N-isopropylbenzamide], < 100 nM.
With `CC(C)N(CC(F)F)C(=O)c1cc(F)ccc1Oc1cncnc1N1CC2(CCN(C[C@@H]3CC[C@@H](NS(=O)(=O)NCC4CC4)CO3)CC2)C1` [Example 148, 2-((4-(7-(((2S,5R)-5-((N-(Cyclopropylmethyl)sulfamoyl)amino)tetrahydro-2H-pyran-2-yl)methyl)-2,7-diazaspiro[3.5]nonan-2-yl)pyrimidin-5-yl)oxy)-N-(2,2-difluoroethyl)-5-fluoro-N-isopropylbenzamide], the IC50 is < 100 nM.
The result for `CC(C)N(CC(F)F)C(=O)c1cc(F)ccc1Oc1cncnc1N1CC2(CCN(C[C@@H]3CC[C@@H](NS(=O)(=O)NC4CC4)CO3)CC2)C1` [Example 149, 2-((4-(7-(((2S,5R)-5-((N-Cyclopropylsulfamoyl)amino)tetrahydro-2H-pyran-2-yl)methyl)-2,7-diazaspiro[3.5]nonan-2-yl)pyrimidin-5-yl)oxy)-N-(2,2-difluoroethyl)-5-fluoro-N-isopropylbenzamide] reads < 100 nM; that for `CC(C)NS(=O)(=O)N[C@@H]1CC[C@@H](CN2CCC3(CC2)CN(c2ncncc2Oc2ccc(F)cc2C(=O)N(CC(F)F)C(C)C)C3)OC1` [Example 150, N-(2,2-Difluoroethyl)-5-fluoro-N-isopropyl-2-((4-(7-(((2S,5R)-5-((N-isopropylsulfamoyl)amino)tetrahydro-2H-pyran-2-yl)methyl)-2,7-diazaspiro[3.5]nonan-2-yl)pyrimidin-5-yl)oxy)benzamide], < 100 nM; that for `CCCNS(=O)(=O)N[C@@H]1CC[C@@H](CN2CCC3(CC2)CN(c2ncncc2Oc2ccc(F)cc2C(=O)N(CC(F)F)C(C)C)C3)OC1` [Example 151, N-(2,2-Difluoroethyl)-5-fluoro-N-isopropyl-2-((4-(7-(((2S,5R)-5-((N-propylsulfamoyl)amino)tetrahydro-2H-pyran-2-yl)methyl)-2,7-diazaspiro[3.5]nonan-2-yl)pyrimidin-5-yl)oxy)benzamide], < 100 nM.
The result for `CCS(=O)(=O)N[C@@H]1CC[C@@H](CN2CCC3(CC2)CN(c2ncncc2Oc2ccc(F)cc2C(=O)N(CC(F)(F)F)C(C)C)C3)OC1` [Example 152, 2-((4-(7-(((2S,5R)-5-(Ethylsulfonamido)tetrahydro-2H-pyran-2-yl)methyl)-2,7-diazaspiro[3.5]nonan-2-yl)pyrimidin-5-yl)oxy)-5-fluoro-N-isopropyl-N-(2,2,2-trifluoroethyl)benzamide] reads < 100 nM; that for `CCNS(=O)(=O)N[C@@H]1CC[C@@H](CN2CCC3(CC2)CN(c2ncncc2Oc2ccc(F)cc2C(=O)N(CC(F)(F)F)C(C)C)C3)OC1` [Example 153, 2-((4-(7-(((2S,5R)-5-((N-Ethylsulfamoyl)amino)tetrahydro-2H-pyran-2-yl)methyl)-2,7-diazaspiro[3.5]nonan-2-yl)pyrimidin-5-yl)oxy)-5-fluoro-N-isopropyl-N-(2,2,2-trifluoroethyl)benzamide], < 100 nM; that for `CNS(=O)(=O)N[C@@H]1CC[C@@H](CN2CCC3(CC2)CN(c2ncncc2Oc2ccc(F)cc2C(=O)N(C(C)C)C2CC(F)(F)C2)C3)OC1` [Example 154, N-(3,3-Difluorocyclobutyl)-5-fluoro-N-isopropyl-2-((4-(7-(((2S,5R)-5-((N-methylsulfamoyl)amino)tetrahydro-2H-pyran-2-yl)methyl)-2,7-diazaspiro[3.5]nonan-2-yl)pyrimidin-5-yl)oxy)benzamide], < 100 nM.
The result for `CCNS(=O)(=O)N[C@@H]1CC[C@@H](CN2CCC3(CC2)CN(c2ncncc2Oc2ccc(F)cc2C(=O)N(C(C)C)C2CC(F)(F)C2)C3)OC1` [Example 155, N-(3,3-Difluorocyclobutyl)-2-((4-(7-(((2S,5R)-5-((N-ethylsulfamoyl)amino)tetrahydro-2H-pyran-2-yl)methyl)-2,7-diazaspiro[3.5]nonan-2-yl)pyrimidin-5-yl)oxy)-5-fluoro-N-isopropylbenzamide] reads < 100 nM.
Consider `C[C@@H]1COC[C@@H](C)N1C(=O)c1cc(F)ccc1Oc1cncnc1N1CC2(CCN(C[C@@H]3CC[C@@H](NS(=O)(=O)NCC(F)(F)F)CO3)CC2)C1` [Example 157, {[(3R,6S)-6-{[2-(5-{2-[(3R,5R)-3,5-Dimethylmorpholine-4-carbonyl]-4-fluorophenoxy}pyrimidin-4-yl)-2,7-diazaspiro[3.5]nonan-7-yl]methyl}oxan-3-yl]sulfamoyl}(2,2,2-trifluoroethyl)amine], for which the IC50 is < 100 nM.
The result for `C[C@@H]1COC[C@@H](C)N1C(=O)c1cc(F)ccc1Oc1cncnc1N1CC2(CCN(C[C@@H]3CC[C@@H](NS(=O)(=O)NCC4CC4)CO3)CC2)C1` [Example 158, (Cyclopropylmethyl)({[(3R,6S)-6-{[2-(5-{2-[(3R,5R)-3,5-dimethylmorpholine-4-carbonyl]-4-fluorophenoxy}pyrimidin-4-yl)-2,7-diazaspiro[3.5]nonan-7-yl]methyl}oxan-3-yl]sulfamoyl})amine] reads < 100 nM.
